How the values were obtained:
Gata2 mRNA = Gata2 mRNA induction in erythroid progenitors; format: cell-based, human; conditions: primary erythroid progenitors, 3 days differentiation, relative to beta-actin mRNA (FIG. 7)
Text: Human bone marrow derived CD34+ cells were expanded for 7 days as described by Sankaran et al., Science, vol. 322(5909), pp. 1839-42 (2008). Cells were then differentiated, in the presence of the indicated concentration of Compound 005, Compound A (another known HDAC1/2 inhibitor), or vehicle control (DMSO), for 3 days in media supporting erythropoiesis (Hu et al., “Isolation and functional characterization of human erythroblasts at distinct stages: implications for understanding of normal and disordered erythropoiesis in vivo”, Blood, vol. 121(16), pp. 3246-53 ([…])). Gata2 mRNA was determined using quantitative real time PCR and expressed relative to the level beta-actin mRNA control.

[1] = Rat cassette pharmacokinetics; format: in vivo; conditions: male, SD, plasma
Experimental: Male SD rats were fasted overnight. Compounds of the invention were dissolved in dimethyl acetamide at 10 times the final concentration, then Solutol HS 15 (BASF) was added to a final concentration of 10%. Finally 80% saline was added and vortexed to achieve a clear solution. For the IV dosing three animals were injected via the foot dorsal vein with 1 mg/kg compound. For the PO dosing 5 mg/kg of compound was delivered by oral gavage. Blood was collected via the tail vein into K2EDTA tubes at 5 minutes, 15 minutes, 30 minutes, 1 hour, 2 hours, 4 hours, 8 hours and 24 hours after dosing. The blood was centrifuged at 2000 g for 5 minutes at 4° C. to obtain plasma. The plasma was extracted with acetonitrile and the level of compound was analyzed by LC/MS/MS. The level of compound in plasma was calculated from a standard curve in rat plasma. The IV clearance and area under the curve were calculated using WinNonLin software. The dose adjusted area under the curve for the IV and oral dosing were used to calculate the oral bioavailability.

[2] = rat cassette dosing, 5 mg/kg PO

CN1CCN(C(=O)N2CCC(Nc3ccc(C(=O)Nc4cc(-c5cccs5)ccc4N)cc3)CC2)CC1 [Compound 005]
induction of Gata2 mRNA (Gata2 mRNA): equivalent dose and time-dependent induction
bioavailability ([1]; 5 mg/kg, rat, oral AUC to IV AUC, dose adjusted): 79%
AUC [1, 2]: 9160 ng·h/mL
Cmax [1, 2]: 569 ng/mL
half-life ([1]; rat cassette dosing, 5 mg/kg PO, read-out: PO T½ (converted)): > 24 h
CL renal ([1]; rat cassette dosing, IV 1 mg/kg, read-out: IV Clr. (converted)): 6.33 mL/min/kg
